Test systems include A498 renal; CCRF-CEM leukemia; HCT-116 colon; HT29 colon; LOX IMVI melanoma; NCI-H522 lung; OVCAR-5 ovarian; SK-MEL-2 melanoma; SK-OV-3 ovarian; UO-31 renal.
What all share (test): inhibition of tumour cell growth, NCI panel, 48 h

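Cultured in 96-well plates, cells were exposed to test compound for 48 hours across five concentrations. Here, GI50 denotes the concentration required for 50% inhibition of growth. TGI marks complete inhibition of growth.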

For the compound `O=S1CSCS1` (stereo not given), the TGI with A498 renal, in the experiment with CCRF-CEM leukemia, with HCT-116 colon, in the experiment with HT29 colon, in the experiment on LOX IMVI melanoma and in the experiment with NCI-H522 lung was above 100 µM each time. Also, the TGI in the experiment on OVCAR-5 ovarian, with SK-MEL-2 melanoma, in the experiment on SK-OV-3 ovarian and in the experiment with UO-31 renal was above 100 µM throughout.
Take `CC(C)(C)N/N=C(\Cc1occc(=O)c1O)C(=O)Nc1ccc([N+](=O)[O-])cc1[N+](=O)[O-]`: the TGI in the experiment with A498 renal, in the experiment with CCRF-CEM leukemia, with HCT-116 colon, in the experiment on HT29 colon, in the experiment with LOX IMVI melanoma and with NCI-H522 lung was above 100 µM in each case. For the same compound, the TGI in the experiment on OVCAR-5 ovarian, with SK-MEL-2 melanoma, with SK-OV-3 ovarian and in the experiment with UO-31 renal was above 100 µM in each case.
With `O=c1oc2cc(N=Cc3ccccc3Cl)ccc2c2ccccc12`, the TGI in the experiment with A498 renal, in the experiment on CCRF-CEM leukemia, with HCT-116 colon, in the experiment with HT29 colon, in the experiment on LOX IMVI melanoma and in the experiment on NCI-H522 lung was above 100 µM throughout. The TGI with OVCAR-5 ovarian, with SK-MEL-2 melanoma and in the experiment with UO-31 renal was above 100 µM in each case.
Take `Cc1cc(=O)n(-c2ccccc2)c(=O)o1`: the TGI in the experiment on A498 renal, with CCRF-CEM leukemia, with HCT-116 colon, with HT29 colon, in the experiment with LOX IMVI melanoma and in the experiment with NCI-H522 lung was above 100 µM each time. Besides, the TGI with OVCAR-5 ovarian, in the experiment with SK-MEL-2 melanoma, in the experiment with SK-OV-3 ovarian and with UO-31 renal was above 100 µM throughout.
With `O=C(/C=C/c1ccccc1)c1c[nH]c2ccccc2c1=O`, the GI50 in the experiment on A498 renal is 2.3 µM; in the experiment with CCRF-CEM leukemia it was 2.88 µM; in the experiment on HCT-116 colon, 3.11 µM; with HT29 colon, 3.15 µM; in the experiment on LOX IMVI melanoma, 2.88 µM; with NCI-H522 lung, 1.88 µM. In addition, the GI50 in the experiment with OVCAR-5 ovarian is 3.87 µM; in the experiment on SK-MEL-2 melanoma, 2.42 µM; with SK-OV-3 ovarian, 2.53 µM; in the experiment on UO-31 renal, 3.26 µM. In addition, the TGI is 10.3 µM with A498 renal; 9.97 µM with CCRF-CEM leukemia; 12.1 µM with HCT-116 colon; 10.6 µM in the experiment with HT29 colon; 12 µM in the experiment on LOX IMVI melanoma; 4.85 µM in the experiment with NCI-H522 lung. Also, the TGI in the experiment with OVCAR-5 ovarian is 17 µM; in the experiment with SK-MEL-2 melanoma, 5.72 µM; in the experiment with SK-OV-3 ovarian it was 6.82 µM; in the experiment with UO-31 renal, 14.7 µM.
As for `N#CC(C#N)=Cc1c(-c2ccccc2)[nH]c2ccccc12`, the GI50 in the experiment with A498 renal is 2.97 µM; in the experiment with CCRF-CEM leukemia it was 2.41 µM; in the experiment on HCT-116 colon, 2.21 µM; with HT29 colon, 0.526 µM; in the experiment with LOX IMVI melanoma, 3.27 µM; in the experiment on NCI-H522 lung it was 4.23 µM. For the same compound, the GI50 with OVCAR-5 ovarian is 19.6 µM; with SK-MEL-2 melanoma, 19.1 µM; with SK-OV-3 ovarian, 5.57 µM; in the experiment with UO-31 renal, 11 µM. Further, the TGI is 22.4 µM with A498 renal; 43.8 µM in the experiment on CCRF-CEM leukemia; above 100 µM with HCT-116 colon; above 53.9 µM in the experiment on HT29 colon; above 47.3 µM with LOX IMVI melanoma; 32.7 µM in the experiment with NCI-H522 lung. In addition, the TGI in the experiment on OVCAR-5 ovarian was above 100 µM; with SK-MEL-2 melanoma, above 70.6 µM; with SK-OV-3 ovarian, above 80.7 µM; in the experiment on UO-31 renal, above 75.6 µM.
With `Cc1cc(=O)oc2c(CN3CCCCC3)c(O)ccc12`, the TGI with A498 renal, with CCRF-CEM leukemia, with HCT-116 colon, with HT29 colon, in the experiment on LOX IMVI melanoma and in the experiment on NCI-H522 lung was above 100 µM in each case. Further, the TGI in the experiment on OVCAR-5 ovarian and in the experiment on SK-MEL-2 melanoma was above 100 µM throughout.
As for `CC(=O)[CH-]C(=O)c1ccccc1.CC(=O)[CH-]C(=O)c1ccccc1.COc1cccc([O-])c1[O-].[Ti+4]`, the GI50 with A498 renal is 72.5 µM; in the experiment with CCRF-CEM leukemia, 6.42 µM; in the experiment on HCT-116 colon, 32.1 µM; in the experiment on HT29 colon it was 64.5 µM; in the experiment on LOX IMVI melanoma it was 25 µM; in the experiment with NCI-H522 lung, 17.2 µM. The GI50 was above 100 µM in the experiment with OVCAR-5 ovarian, 24.8 µM in the experiment on SK-MEL-2 melanoma, 53.9 µM in the experiment with SK-OV-3 ovarian and above 100 µM with UO-31 renal. Further, the TGI with A498 renal was above 100 µM; in the experiment with CCRF-CEM leukemia, above 100 µM; with HCT-116 colon it was above 100 µM; in the experiment on HT29 colon, above 100 µM; in the experiment with LOX IMVI melanoma, above 100 µM; with NCI-H522 lung, 31.7 µM. For the same compound, the TGI is above 100 µM in the experiment with OVCAR-5 ovarian, 62.4 µM in the experiment on SK-MEL-2 melanoma, above 100 µM in the experiment with SK-OV-3 ovarian and above 100 µM in the experiment on UO-31 renal.
Turning to `O=C(COc1ccc(/C=C2\Oc3ccccc3C2=O)cc1)Nc1nccs1`, the GI50 is 54.1 µM in the experiment on A498 renal; 1.52 µM with CCRF-CEM leukemia; 39.1 µM in the experiment on HCT-116 colon; above 100 µM in the experiment with HT29 colon; 0.371 µM in the experiment on LOX IMVI melanoma; above 100 µM in the experiment on OVCAR-5 ovarian. Further, the results for the GI50 with SK-MEL-2 melanoma, in the experiment with SK-OV-3 ovarian and in the experiment with UO-31 renal were 39 µM, above 100 µM and above 100 µM, respectively. The TGI was above 100 µM with A498 renal; 3.27 µM in the experiment with CCRF-CEM leukemia; above 100 µM with HCT-116 colon; above 100 µM in the experiment on HT29 colon; above 100 µM in the experiment on LOX IMVI melanoma; above 100 µM in the experiment on OVCAR-5 ovarian. Moreover, the TGI with SK-MEL-2 melanoma, in the experiment with SK-OV-3 ovarian and in the experiment with UO-31 renal was above 100 µM throughout.
For the compound `Cc1oc2nc[nH]c(=O)c2c1C(=O)/C=C/c1ccc(Cl)cc1`, the GI50 is 1.48 µM in the experiment on A498 renal; 1.81 µM with CCRF-CEM leukemia; 1.59 µM with HCT-116 colon; 2.9 µM in the experiment with HT29 colon; 1.6 µM in the experiment on LOX IMVI melanoma; 1.79 µM with NCI-H522 lung. For the same compound, the GI50 with OVCAR-5 ovarian was 3.17 µM; in the experiment with SK-MEL-2 melanoma, 3.13 µM; in the experiment with SK-OV-3 ovarian, 3.09 µM; with UO-31 renal it was 1.09 µM. Also, the TGI was 5.83 µM with A498 renal; 6.94 µM in the experiment with CCRF-CEM leukemia; 3.94 µM in the experiment on HCT-116 colon; 10.6 µM with HT29 colon; 3.32 µM with LOX IMVI melanoma; 5.74 µM in the experiment on NCI-H522 lung. Also, the TGI with OVCAR-5 ovarian was found to be 12 µM; in the experiment with SK-MEL-2 melanoma, 12.3 µM; in the experiment with SK-OV-3 ovarian, 13.8 µM; in the experiment with UO-31 renal, 11 µM.

Values taken from PubChem BioAssay (NCI).
